Measured values taken from article PMC12427806, “Calpain-1 and Calpain-2 Promote Breast Cancer Metastasis” (Cells, 2025).
Where a SMILES comes first, the peptide text is derived from it. [ ]: non-standard residue; d: D form. The star is where a group is joined. 5FAM = O=C1OC2(c3ccc(O)cc3Oc3cc(O)ccc32)c2ccc(C(=O)*)cc21

Key:
[1] = system: MDA-MB-231 cells; assay: Single-cell migration on collagen (IncuCyte video microscopy, DiPer MSD analysis), WT cells; assay type: cell-based, human; details: WT + mB27, 4 µM; Std. Error 0.6565; WT + vehicle slope 14.65
Procedure: (§1) For the migration assay, plates were coated with 15 µg/mL rat tail collagen type 1 (BD-Biosciences, Franklin Lakes, NJ, USA). Cells were seeded at 1000 cells per well. Plates were imaged using the IncuCyte Live-Cell Analysis System (Essen Bioscience, Ann Arbor, MI, USA) every 10 min for 24 h. Cell migration was tracked using the “Track Object” program in Metamorph 7.8 (Molecular Devices, LLC., San Jose, CA, USA). The resulting coordinates were analyzed with the DiPer program to measure speed and directional persistence of migration. Experiments were conducted in triplicate, each with at least 20 cells per genotype. The results are presented as the mean ± standard error of the mean. […]
(§2) Migration propensity of calpain-deficient cells was measured by IncuCyte video microscopy of single-cell trajectories on a collagen substrate, which were then analyzed according to an established protocol using three measures of migration: (1) speed of migration (a raw value of displacement from frame to frame); (2) directionality (a ratio of cell displacement to path); and (3) mean square displacement (MSD, how much area a migrating cell has covered).
(§3) To evaluate the effect of this calpain inhibitor, we first measured MDA-MB-231 cancer cell migration in the presence of 4 µM mB27 (Figure 5a,b). […] A thorough quantification and statistical analysis of cell migration are presented in Supplementary Information 12.

[2] = system: WT MDA-MB-231 tumors; assay: Orthotopic engraftment resect-and-wait model of mammary tumor growth and lung metastasis; assay type: in vivo, Rag2-/- IL2Rγc-/- mice; details: n = 10
Procedure: Cells were washed, counted, and resuspended in PBS to achieve a concentration of 1,000,000 cells in 40 µL and placed on ice and supplemented with Growth Factor Reduced Matrigel (Corning Inc., Corning, NY, USA, catalog number 354,230) in a 10:40 Matrigel/cell suspension ratio. The resulting mixture was maintained on ice until the engraftment. Matrigel was included in the engraftment suspension to promote initial cell retention in the engrafted bolus in the mammary fat pad and to ensure consistent tumor onset. While MDA-MB-231 cells can form tumors without matrix in Rag2^-/- IL2Rγc^-/- mice, the addition of Matrigel could reduce experimental variability and mimic the basement membrane or extracellular matrix components of the tumor microenvironment.
All animal procedures were approved by the university animal care committee in accordance with guidelines from the Canadian Council on Animal Care. […]
The wound clips were removed one week after the engraftment surgery, and the tumor size was measured daily until it reached 600 mm^3. […] When tumors reached the maximum volume (19 to 22 days after the engraftment surgery, determined individually for every mouse), they were resected by recovery surgery, and mice were then monitored for 12 days before being euthanized with CO2 and cervical dislocation and assessed for metastasis. […]

[3] = system: CAPNS1 KO MDA-MB-231 cells; assay: Single-cell migration on collagen (IncuCyte video microscopy, DiPer MSD analysis), CAPNS1 KO cells; assay type: cell-based, human
Procedure: as §1, §2, §3

SMILES: CC[C@H](C)[C@H](NC(=O)[C@H](Cc1ccc(O)cc1)NC(=O)[C@@H](NC(=O)[C@H](CO)NC(=O)[C@H](CO)NC(=O)[C@H](CCSC)NC(=O)[C@H]1CCCN1C(=O)[C@@H](CC(=O)O)NC(=O)c1ccc2c(c1)C(=O)OC21c2ccc(O)cc2Oc2cc(O)ccc21)[C@@H](C)O)C(=O)N[C@@H](CCC(=O)O)C(=O)N[C@@H](CCC(=O)O)C(=O)N[C@@H](CC(C)C)C(=O)NCC(=O)N[C@@H](CCCCN)C(=O)N[C@@H](CCCNC(=N)N)C(=O)N[C@@H](CCC(=O)O)C(=O)N[C@H](C(=O)N[C@H](C(=O)N[C@H](C(=O)N1CCC[C@H]1C(=O)N1CCC[C@H]1C(=O)N[C@@H](CCCCN)C(=O)N[C@@H](Cc1ccc(O)cc1)C(=O)N[C@@H](CCCNC(=N)N)C(=O)N[C@@H](CCC(=O)O)C(=O)N[C@@H](CC(C)C)C(=O)N[C@@H](CC(C)C)C(=O)N[C@@H](C)C(=O)N[C@@H](CCCNC(=N)N)C(=O)N[C@@H](CCCNC(=N)N)C(=O)N[C@@H](CCCNC(=N)N)C(=O)N[C@@H](CCCNC(=N)N)C(=O)N[C@@H](CCCNC(=N)N)C(=O)N[C@@H](CCCNC(=N)N)C(=O)N[C@H](CCCNC(=N)N)C(=O)N[C@H](CCCNC(=N)N)C(=O)N[C@H](CCCNC(=N)N)C(=O)O)[C@@H](C)CC)[C@@H](C)O)C(C)C [mB27] (5FAM-[dD][dP]MSSTYIEELGKREVTIPPKYRELLARRRRRR[dR][dR][dR]-OH; N-terminus and C-terminus assumed)
- Best-fit slope of MSD [1]: 7.652
- Tumor growth rate ([2]; 5 mg/kg/day intraperitoneally for 14 days from 50 mm^3 to 600 mm^3 tumor volume, vehicle 0.431 ± 0.046, p = 0.8554): 0.428 ± 0.024 mm diameter per day
- Lung metastasis ([2]; 5 mg/kg/day intraperitoneally for 14 days, tumor resection at 600 mm^3, lungs assessed 12 days later, vehicle 1.12 ± 1.35, p = 0.102 (not significant)): 0.34 ± 0.20 metastases per mm^2
- Best-fit slope of MSD ([3]; CAPNS1 KO + mB27, 4 µM, Std. Error 0.4558, CAPNS1 KO + vehicle slope 3.642): 3.365
- Effect of peptide on migration of CAPNS1 KO cells (in words) ([3]; CAPNS1 KO MDA-MB-231 cells, 4 µM peptide, ANCOVA p = 0.6134): no effect
